Source: ChEMBL document CHEMBL1806455, “Synthesis, activity and pharmacokinetics of novel antibacterial 15-membered ring macrolones” (Eur J Med Chem, 2011)
Converted amounts (≈) assume the structure as drawn.

Tests used:
Staphylococcus aureus [1] = test: Antibacterial activity against erythromycin-sensitive Staphylococcus aureus ATCC 13709 by broth microdilution method; type: functional
Streptococcus pneumoniae [2] = test: Antibacterial activity against erythromycin-sensitive Streptococcus pneumoniae SP030 by broth microdilution method; type: functional
Streptococcus pyogenes [3] = test: Antibacterial activity against erythromycin-sensitive Streptococcus pyogenes 3565 by broth microdilution method; type: functional
Staphylococcus aureus [4] = test: Antibacterial activity against efflux-mediated macrolide-resistant Staphylococcus aureus PK1 by broth microdilution method; type: functional
Streptococcus pneumoniae [5] = test: Antibacterial activity against efflux-mediated macrolide-resistant Streptococcus pneumoniae Ci137 by broth microdilution method; type: functional
Streptococcus pyogenes [6] = test: Antibacterial activity against efflux-mediated macrolide-resistance Streptococcus pyogenes 2 Finland by broth microdilution method; type: functional
Staphylococcus aureus [7] = test: Antibacterial activity against inducible macrolide-lincosamide-streptogramin B resistant Staphylococcus aureus 90256 by broth microdilution method; type: functional
Streptococcus pneumoniae [8] = test: Antibacterial activity against inducible macrolide-resistant, constitutive lincosamide, streptogramin-resistant Streptococcus pneumoniae 134 GR M by broth microdilution method; type: functional
Streptococcus pyogenes [9] = test: Antibacterial activity against inducible macrolide-lincosamide-streptogramin B resistant Streptococcus pyogenes Finland 11 by broth microdilution method; type: functional
Staphylococcus aureus [10] = test: Antibacterial activity against constitutive macrolide, lincosamide, streptogramin-resistant Staphylococcus aureus PK2 by broth microdilution method; type: functional
Streptococcus pneumoniae [11] = test: Antibacterial activity against constitutive macrolide, lincosamide, streptogramin-resistant Streptococcus pneumoniae 58 spain by broth microdilution method; type: functional
Streptococcus pyogenes [12] = test: Antibacterial activity against macrolide, lincosamide, streptogramin-resistant Streptococcus pyogenes 166 GR-Micro by broth microdilution method; type: functional
Haemophilus influenzae = test: Antibacterial activity against Haemophilus influenzae ATCC 49247 by broth microdilution method; type: functional
Moraxella catarrhalis = test: Antibacterial activity against Moraxella catarrhalis ATCC 23246 by broth microdilution method; type: functional
Rattus norvegicus = test: Liver blood flow in Han Wistar rat at 10 mg/kg, iv and 50 mg/kg, po; type: ADME, organism-based; conditions: in vivo

Row | SMILES | MIC (Staphylococcus aureus [1]) [µg/mL] | MIC (Streptococcus pneumoniae [2]) [µg/mL] | MIC (Streptococcus pyogenes [3]) [µg/mL] | MIC (Staphylococcus aureus [4]) [µg/mL] | MIC (Streptococcus pneumoniae [5]) [µg/mL] | MIC (Streptococcus pyogenes [6]) [µg/mL] | MIC (Staphylococcus aureus [7]) [µg/mL] | MIC (Streptococcus pneumoniae [8]) [µg/mL] | MIC (Streptococcus pyogenes [9]) [µg/mL] | MIC (Staphylococcus aureus [10]) [µg/mL] | MIC (Streptococcus pneumoniae [11]) [µg/mL] | MIC (Streptococcus pyogenes [12]) [µg/mL] | MIC (Haemophilus influenzae) [µg/mL] | MIC (Moraxella catarrhalis) [µg/mL] | LBF (Rattus norvegicus) [%]
1 | CC[C@H]1OC(=O)[C@H](C)[C@@H](O[C@H]2C[C@@](C)(OC)[C@@H](OC(=O)CCOCCOCCNc3cc4c(=O)c(C(=O)O)cn(C5CC5)c4cc3Cl)[C@H](C)O2)[C@H](C)[C@@H](O[C@@H]2O[C@H](C)C[C@H](N(C)C)[C@H]2O)[C@](C)(O)C[C@@H](C)CN(C)[C@H](C)[C@@H](O)[C@]1(C)O | 0.25 (≈ 0.214 µM) | ≤ 0.125 | ≤ 0.125 | 0.25 (≈ 0.214 µM) | ≤ 0.125 | ≤ 0.125 | 0.25 (≈ 0.214 µM) | ≤ 0.125 | ≤ 0.125 | 16 (≈ 13.7 µM) | ≤ 0.125 | ≤ 0.125 | 0.5 (≈ 0.427 µM) | ≤ 0.125 | 13
2 | CC[C@H]1OC(=O)[C@H](C)[C@@H](O[C@H]2C[C@@](C)(OC)[C@@H](OC(=O)CCOCCNc3cc4c(=O)c(C(=O)O)cn(C5CC5)c4cc3Cl)[C@H](C)O2)[C@H](C)[C@@H](O[C@@H]2O[C@H](C)C[C@H](N(C)C)[C@H]2O)[C@](C)(O)C[C@@H](C)CN(C)[C@H](C)[C@@H](O)[C@]1(C)O | ≤ 0.125 | ≤ 0.125 | ≤ 0.125 | 0.25 (≈ 0.222 µM) | ≤ 0.125 | ≤ 0.125 | 0.25 (≈ 0.222 µM) | ≤ 0.125 | ≤ 0.125 | 32 (≈ 28.4 µM) | ≤ 0.125 | ≤ 0.125 | 0.5 (≈ 0.444 µM) | 0.5 (≈ 0.444 µM) | 26
